Key:
[1] = biological target: T1, Thyroid hormone receptor alpha (Homo sapiens, UniProt P10827); assay: Binding affinity to human thyroid hormone receptor alpha 1
T1 sequence (P10827 whole entry): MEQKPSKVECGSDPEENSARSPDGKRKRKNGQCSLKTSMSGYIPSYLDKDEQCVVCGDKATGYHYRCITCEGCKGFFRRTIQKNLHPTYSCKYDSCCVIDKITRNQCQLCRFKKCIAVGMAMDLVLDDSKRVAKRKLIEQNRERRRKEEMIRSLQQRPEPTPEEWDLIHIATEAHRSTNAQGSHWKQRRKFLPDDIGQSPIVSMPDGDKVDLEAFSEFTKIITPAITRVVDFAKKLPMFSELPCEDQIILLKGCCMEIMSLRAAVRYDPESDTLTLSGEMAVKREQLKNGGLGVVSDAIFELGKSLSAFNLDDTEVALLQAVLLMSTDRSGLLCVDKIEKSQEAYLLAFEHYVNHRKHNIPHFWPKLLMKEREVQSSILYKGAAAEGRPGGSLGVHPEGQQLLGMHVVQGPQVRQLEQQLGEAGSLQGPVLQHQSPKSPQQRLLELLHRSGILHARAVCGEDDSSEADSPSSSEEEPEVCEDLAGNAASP

[2] = biological target: T2, Thyroid hormone receptor beta (Homo sapiens, UniProt P10828); assay: Binding affinity to human thyroid hormone receptor beta 1
T2 sequence (P10828 whole entry): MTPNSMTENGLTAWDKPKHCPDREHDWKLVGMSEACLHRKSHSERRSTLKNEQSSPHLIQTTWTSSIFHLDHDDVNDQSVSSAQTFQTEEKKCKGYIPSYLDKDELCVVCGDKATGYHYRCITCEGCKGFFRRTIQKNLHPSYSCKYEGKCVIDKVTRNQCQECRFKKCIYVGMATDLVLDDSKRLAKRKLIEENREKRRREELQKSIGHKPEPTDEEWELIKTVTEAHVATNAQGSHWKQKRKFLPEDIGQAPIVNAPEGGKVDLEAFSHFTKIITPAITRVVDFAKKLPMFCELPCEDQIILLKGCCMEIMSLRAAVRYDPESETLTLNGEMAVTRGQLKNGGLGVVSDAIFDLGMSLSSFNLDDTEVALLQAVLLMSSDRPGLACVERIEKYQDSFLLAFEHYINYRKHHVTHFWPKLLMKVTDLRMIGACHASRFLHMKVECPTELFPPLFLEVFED

[3] = biological target: Thyroid hormone receptor (Homo sapiens) (UniProt P10827+P10828); assay: Selectivity for human thyroid hormone receptor beta 1 over thyroid hormone receptor alpha 1; type: protein-complex assay

| Structure (SMILES) | IC50 [1] | IC50 [2] | Ratio IC50 [3] |
| --- | --- | --- | --- |
| CC(C)C(=O)Nc1ccc(Oc2c(Cl)cc(CC(=O)O)cc2Cl)cc1Br | 630 nM | 18 nM | 21 |
| CCC(=O)Nc1ccc(Oc2c(Cl)cc(CC(=O)O)cc2Cl)cc1Br | 3300 nM | 140 nM | 14 |
| CCC(C)C(=O)Nc1ccc(Oc2c(Cl)cc(CC(=O)O)cc2Cl)cc1Br (stereo not drawn) | 240 nM | 4.3 nM | 33 |
| CCCC(CCC)C(=O)Nc1ccc(Oc2c(Cl)cc(CC(=O)O)cc2Cl)cc1Br | 1200 nM | 45 nM | 16 |
| CCCC(C)C(=O)Nc1ccc(Oc2c(Cl)cc(CC(=O)O)cc2Cl)cc1Br (stereo not drawn) | 1300 nM | 47 nM | 16 |
| CCC(CC)C(=O)Nc1ccc(Oc2c(Cl)cc(CC(=O)O)cc2Cl)cc1Br | 610 nM | 16 nM | 22 |
